Experimental data reported in US20060063198A1, “Diagnostic marker” (priority 2004, published 2006).
No end group written: not given here. *: point of attachment. For = O=C*

Assays:
human neutrophils = assay: Neutrophil chemotaxis in a modified Boyden chamber assay; assay type: cell-based; settings: synthetic peptides, fMLP as comparator
Method: Serum and plasma samples were collected from six female healthy volunteers aged 20-29, and ten ACS patients. Clinical diagnosis of the ten ACS patients indicated one unstable angina patient and 9 patients with acute myocardial infarction (AMI). The unstable angina patient arrived to the Emergency Department 30.5 hours after symptoms onset. Seven of the nine AMI patients presented to the Emergency Department within 1.5-3.5 hours after onset of chest pain. The other two AMI patients arrived 10 hours and 24 hours after symptoms onset. Blood samples were collected upon arrival of the patient, centrifuged and stored at −70° C. for up to 21 days. Serum and plasma samples were tested for neutrophil chemotactic activity using a modified Boyden chamber technique and human neutrophils as indicator cells (see, for example, Elgebaly, S. A., et al. J. Mol. Cell. Cardiol. 21:585-593, 1989; and Elgebaly, S. A., et al. Am. J. Pathol. 137:1233-1241, 1990, each of which is incorporated by reference in its entirety).
Samples were also fractionated using high performance liquid chromatography (HPLC) and a size exclusion column (1-300 kDa). The 5 kDa and lower molecular weight fractions were collected and assayed for neutrophil chemotactic activity. The standard synthetic chemoattractant fMet-Leu-Phe (f-MLP) was used as the positive control for 100% chemotactic response. Hank's Balanced Salt Solution (HBSS) was the negative control for random migration. Neutrophil migration was reported as chemotactic index of counted cells trapped within 10-micron membrane layer. The average of three readings were calculated for each filter. [formula]
(§1) A synthetic peptide having the sequence: N-formyl-[…] Synthetic peptides of sequence: MIINHNLAAINSHR (i.e., unmodified peptide 3) and of sequence: […]

neutrophils = assay: Chemotactic activity retained after overnight refrigeration; assay type: cell-based; settings: unlike fMLP
From the text: as §1

Substance	chemotaxis of neutrophils (human neutrophils)	chemotactic activity when refrigerated overnight (neutrophils)
MIINHNLAAINSHR [sequence 3]	promoted chemotaxis to a lesser degree	–
MIINHNLAAINSHRSPGADGNGGEAMPGGG [3+9]	promoted chemotaxis to a lesser degree	retained chemotactic activity
N-formyl-MENHK [N-formyl-7]	promote chemotaxis to a lesser degree than fMLP	–
N-formyl-MIINHNLAAINSHR (For-MIINHNLAAINSHR) [N-formyl-3]	promoted strong chemotaxis	retained chemotactic activity
N-formyl-MIINHNLAAINSHRSPGADGNGGEAMPGGGK (For-MIINHNLAAINSHRSPGADGNGGEAMPGGGK) [N-formyl-3+9+K]	promoted strong chemotaxis	retained chemotactic activity
N-formyl-MNTRAMNDASGR (For-MNTRAMNDASGR) [N-formyl-5]	promote chemotaxis to a lesser degree than fMLP	–
SPGADGNGGEAMPGGG [sequence 9]	no chemotactic activity	–
